Measured values: paper PMC11050443, “Discovery of Strong 3-Nitro-2-Phenyl-2H-Chromene Analogues as Antitrypanosomal Agents and Inhibitors of Trypanosoma cruzi Glucokinase” (International Journal of Molecular Sciences, 2024)
Read-outs that look alike come from different tables or passages of the source.

Legend:
T. cruzi = system: T. cruzi; design: method as in PMID 26778112; conditions: cited from earlier work
[1] = system: T. brucei brucei (427 strain) bloodstream form; assay: In vitro T. brucei biological assay (Alamar blue); assay type: cell-based, Trypanosoma brucei brucei; conditions: Trypanosoma brucei, 48 h, T. brucei brucei 427 strain bloodstream form growth inhibition; N = 3
Experimental: The in vitro cell culture preparation of T. brucei brucei (427 strain) trypomastigote bloodstream form followed by treatment with inhibitors has recently been described by Ajayi and colleagues. The 3-nitro-2-phenyl-2H-chromene compounds (inhibitors) that were prepared as 10.0 mM stock solutions in 100% DMSO were thawed from −80 °C to room temperature. HMI-9 medium [Iscove’s modification of DMEM supplemented with 10% FBS, 10% serum plus (SAFC), 0.05 mM bathocuproinesulfonate, 1.5 mM L-cysteine, 1.0 mM hypoxanthine, 0.2 mM β-mercaptoethanol, 0.16 mM thymidine, and 1.0 mM pyruvate] was prepared. In a sterile, round-bottom, 96-well microplate, 100 μL of HMI-9 medium was added to each well. A volume of 2.0 μL of a given compound plus a volume of 98.0 μL of fresh media were both added to a well in the first row of the 96-well microplate; this was performed for each compound to be tested. Solutions were mixed with a micropipette followed by transfer of 100 μL to the next row and repeated. The compound solutions ranged from 0.0781–10.0 μM and this was accomplished by serial dilution using a 2-fold dilution. T. brucei parasites were centrifuged for 10 min at 900× g (without centrifuge breaks). The media was carefully discarded by aspiration and the parasites were resuspended in warm media. Parasites were counted in a Newbauer chamber. Afterwards, the parasites were diluted to 50,000 cells/mL (5000 cells/well) and 100 μL was added to each well of the 96-well microplate using a multichannel pipette. After 48 h, 20.0 μL of Alamar blue was added to each well and the plate was placed into an incubator for 4 h at 37 °C. Fluorescence readings were measured using a Victor Nivo multimode microplate reader (PerkinElmer, Inc.; Shelton, CT, USA) at λex = 530 nm and λem = 590 nm. All measurements were performed in triplicate and IC50 determinations for percent growth inhibition were carried out using GraphPad Prism 10.0. The detergent SDS was used as a positive control and its final solution concentration was 0.5%. Three control experiments were performed, as follows: (a) parasites alone, (b) parasites and 0.5% SDS, and (c) the medium alone.

NIH-3T3 fibroblasts = assay: In vitro cytotoxicity assay of mammalian NIH-3T3 fibroblasts (Alamar blue); assay type: cell-based; conditions: NIH-3T3 fibroblast growth inhibition, host cell toxicity; 4 days; N = 3
Experimental: The in vitro cell culturing of mammalian NIH-3T3 fibroblasts following treatment with inhibitors to assess for cytotoxicity has previously been described. DMEM lacking phenol red and supplemented with 2% FBS and 1% PSG was warmed up. NIH-3T3 cells were trypsinized, as described in the cell culture protocol. When cells became detached, they were harvested in DMEM lacking phenol red and including 2% FBS and 1% PSG. The cells were centrifuged at 1000 rpm for 5 min, the medium was discarded, and the cells were resuspended in fresh DMEM lacking phenol red and including 2% FBS and 1% PSG. The cells were centrifuged at 1000 rpm for 5 min, resuspended in the medium, counted, and diluted to 500,000 cells/mL. Dilution was accomplished by transferring the stock number of cells into a sterile basin and 100 μL of cells was added to each well of a transparent, sterile, flat-bottom, 96-well microplate (50,000 cells/well) using a multichannel pipette. The plate was placed into the incubator for 3 h to allow cells to attach. The 3-nitro-2-phenyl-2H-chromene compounds were thawed from −80 °C to room temperature. The compounds were prepared as 10.0 mM stock solutions in 100% DMSO. A volume of 2.0 μL of a given compound plus a volume of 98.0 μL of fresh media were both added to a well in the first row of the 96-well microplate; this was performed for each compound to be tested. The solutions were mixed with a micropipette, followed by the transfer of 100 μL to the next row and repeated. The compound solutions ranged from 0.0139–30.3 μM and this was accomplished by serial dilution using a 3-fold dilution. After incubation for 4 days, 10.0 μL of Alamar blue was added to each well. Absorbance readings were measured using a Victor Nivo multimode microplate reader (PerkinElmer, Inc.; Shelton, CT, USA) at λ = 590 nm. All measurements were performed in triplicate and TC50 determinations for percent growth inhibition were carried out using GraphPad Prism 10.0. The final volume per well of cells and a given compound was 100 μL and this volume became 110 μL after the addition of Alamar blue. The detergent SDS was used as a positive control and its final solution concentration was 0.1%. Three controls were carried out, as follows: (a) NIH-3T3 cells alone, (b) perished NIH-3T3 cells (NIH-3T3 cells in the presence of 0.1% SDS), and (c) the medium alone.

[2] = molecular target: T1, TcGlcK (Trypanosoma cruzi glucokinase) (Trypanosoma cruzi, UniProt Q4E4E1); assay: TcGlcK primary screening assay (LmG6PDH-coupled, Dixon plots); assay type: biochemical; conditions: Dixon plots; 0.4, 0.6, 0.8 mM D-glucose; N = 1 unless marked, N = 3 for compounds 1, 4, 9, 11
T1 construct: made in house; host or cells: Escherichia coli BL21(DE3)
T1 sequence (Q4E4E1 1-376): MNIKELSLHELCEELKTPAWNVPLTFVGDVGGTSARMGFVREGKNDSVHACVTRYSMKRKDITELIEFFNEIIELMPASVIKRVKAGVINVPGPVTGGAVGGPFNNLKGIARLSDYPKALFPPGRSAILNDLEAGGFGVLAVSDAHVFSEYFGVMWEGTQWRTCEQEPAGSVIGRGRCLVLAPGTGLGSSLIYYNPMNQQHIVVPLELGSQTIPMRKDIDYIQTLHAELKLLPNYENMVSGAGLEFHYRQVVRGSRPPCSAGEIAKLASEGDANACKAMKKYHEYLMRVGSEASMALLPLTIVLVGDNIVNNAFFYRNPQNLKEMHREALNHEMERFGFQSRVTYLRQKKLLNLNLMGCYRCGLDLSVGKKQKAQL
Experimental: A primary screening assay was carried out for TcGlcK with the 3-nitro-2-phenyl-2H-chromene analogues. The data was subsequently processed for respective Ki values in order to assess enzyme inhibition. […] The primary screening assay was performed with the substrate D-glucose in various concentrations of 0.4 mM, 0.6 mM, and 0.8 mM to produce Dixon plots with different slopes. Each of the 3-nitro-2-phenyl-2H-chromene analogues were originally prepared at a working concentration of 1.0 mM and were dissolved in 100% DMSO. The final assay concentrations of the analogue compounds (inhibitors) ranged from 0.0–10.0 μM. The analogue compounds were pre-incubated with the enzyme system a minimum of 10 min prior to the initiation of the assay. The enzymatic reaction was carried out at room temperature (22 °C; temperature optimum) using ATP to initiate the reaction, and termination was performed after 120 s (time optimum) by stopping the reaction with the addition of an EDTA (pH 8.0) solution, to a final concentration of 100 mM. TcGlcK enzyme activity was analyzed for the production of NADPH. Each completed reaction mixture was added into a black, round-bottom microplate and scanned by a VANTAstar-F multi-mode microplate reader (BMG LABTECH, Inc.; Cary, NC, USA). The instrument was set to fluorescence mode and the wavelengths (λex = 340 nm; λem = 485 nm) were set to observe the relative fluorescence units of NADPH [40]. The enzyme-inhibition kinetics Ki value determination and the mode of inhibition was determined using the Cornish–Bowden Dixon Plot analysis method.

[3] = molecular target: T2, LmG6PDH (Leuconostoc mesenteroides glucose-6-phosphate dehydrogenase) (Leuconostoc mesenteroides, UniProt P11411); assay: Confirmatory assay on the LmG6PDH enzyme-coupled system; assay type: biochemical; conditions: N = 4
T2 construct: purchased Worthington Biochemical Corporation
Experimental: Two criteria were examined in order to certify on-target confirmed hits: (a) the assessment of potential inhibition to the LmG6PDH enzyme-coupled system, and (b) the precision of the assay (per inhibitor), performed in quadruplicate (N = 4). Compounds were tested in quadruplicate in a black, round-bottom 96-well microplate in which wells were filled with a buffered solution (50 mM triethanolamine, 150 mM NaCl) amounting to a total volume of 206.5 μL that contained the following reagents at final assay concentrations: LmG6PDH (6.1 μg/mL), NADP^+ (0.54 mM), ATP (0.54 mM), MgCl2 (6.9 mM), DMSO (1.0% by vol.), D-glucose-6-phosphate (0.80 mM), and a 3-nitro-2-phenyl-2H-chromene analogue (20.0 μM). The analogue compounds were pre-incubated with the enzyme system a minimum of 10 min prior to the initiation of the assay. The enzymatic reactions were initiated and terminated similarly as described in the TcGlcK primary screen (vide supra). The production of NADPH was monitored using the VANTAstar-F multi-mode microplate reader set to fluorescent mode, λex = 340 nm and λem = 485 nm, over a 120-s timeframe.

TcGlcK = molecular target: TcGlcK; design: method as in PMID 26778112; conditions: competitive inhibitor, previous study; cited from earlier work

T2 sequence (P11411 whole entry): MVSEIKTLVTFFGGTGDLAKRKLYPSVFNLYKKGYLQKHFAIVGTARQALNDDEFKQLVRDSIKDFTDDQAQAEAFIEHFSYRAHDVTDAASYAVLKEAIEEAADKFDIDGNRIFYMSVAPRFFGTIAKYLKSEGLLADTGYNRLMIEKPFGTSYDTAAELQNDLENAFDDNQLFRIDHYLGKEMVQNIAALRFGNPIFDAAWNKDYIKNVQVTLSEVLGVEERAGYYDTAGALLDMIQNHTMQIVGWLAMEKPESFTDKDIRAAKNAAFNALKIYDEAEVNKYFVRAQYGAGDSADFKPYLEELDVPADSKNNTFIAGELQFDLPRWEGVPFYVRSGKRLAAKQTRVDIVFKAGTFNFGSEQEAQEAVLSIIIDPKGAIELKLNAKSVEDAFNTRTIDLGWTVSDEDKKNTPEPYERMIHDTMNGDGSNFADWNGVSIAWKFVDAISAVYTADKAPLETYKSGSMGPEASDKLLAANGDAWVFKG

For `O=C(Cn1ccnc1[N+](=O)[O-])NCc1ccccc1` [Benznidazole, benznidazole], the IC50 (T. cruzi; benznidazole control, previous work, read-out: T. cruzi IC50) is given as 1120 ± 95 nM.

With `O=[N+]([O-])C1=Cc2ccccc2OC1c1ccccc1Cl` (centres unmarked) [Compound 12, 2-(2-Chlorophenyl)-3-nitro-2H -chromene] the IC50 [1] was 1670 ± 60 nM, the “NIH-3T3 TC50” value (NIH-3T3 fibroblasts) was 10900 ± 1550 nM and the Ki [2] was 14000 nM. For the same molecule, the “LmG6PDH inhibitory effect (in words)” value ([3]; 20 µM compound) was “did not observe any significant LmG6PDH inhibitory effects” and the inhibition at 20 µM ([3]; percentage of inhibition at 20 µM compound in comparison to controls, read-out: LmG6PDH Inh20) was 8.6 ± 0.1%.

In the case of `O=C(N[C@H]1[C@@H](O)[C@H](O)C(CO)O[C@@H]1O)OCc1ccccc1` (some centres unmarked) [carboxybenzyl glucosamine], the IC50 (T. cruzi; previous study, read-out: in vitro percent-growth-inhibition IC50 in T. cruzi culture) is listed as 48700 nM and the Ki (TcGlcK) is listed as 710 nM.
